Measured values taken from patent US20090318568A1, “ADHERENT COATING FOR TISSUE SURFACE AND/OR TRANS-TISSUE SURFACE SUBSTANCE DELIVERY” (priority 2009, published 2009).

Experiments:
[1] = Analysis of the filtered paclitaxel solution in glycerol + 1,2-propylene glycol; format: physicochemical; conditions: 100 mg paclitaxel in 100 g USP glycerol warmed to about 50° C.
Description: To this mixture, 60 g of 1,2-propylene glycol was added; the new mixture was mixed, and warmed further.

[2] = Analysis of the paclitaxel residue dissolved in 1,2-propylene glycol; format: physicochemical; conditions: 100 g 1,2-propylene glycol, 135° C. for 45 min
Description: The residue from filtering the glycerol solution of EXAMPLE 1 was added to 100 g of 1,2-propylene glycol, and the resulting mixture warmed to 50° C.; little of the solid material appeared to dissolve. The mixture was then placed in an oven at 135° C. and heated for 45 min.

concentration in solution [2]: 230 µg/mL
Structure (SMILES): CC(=O)O[C@H]1C(=O)[C@@]2(C)[C@H]([C@H](OC(=O)c3ccccc3)[C@]3(O)C[C@H](OC(=O)[C@H](O)[C@@H](NC(=O)c4ccccc4)c4ccccc4)C(C)=C1C3(C)C)[C@]1(OC(C)=O)CO[C@@H]1C[C@@H]2O [paclitaxel]
dissolution in glycerol (observation) [1]: little of the paclitaxel appeared to dissolve
